Experimental data as given in PubChem BioAssay AID248 (DTP/NCI, 2004).
“And” between values parts separate entries of the source, which are not always exact repeats. Identical values can stand only once. Inconclusive results and toxic doses are left out. Rule as the data show it: active = T/C of 150% or more; inactive = T/C below 125%. Square brackets hold non-standard residues; d marks the D form. Peptide text beside a SMILES is read from it. * marks the point of attachment. ξ: configuration not given here. Cbz = O=C(OCc1ccccc1)*; ξD = NC(CC(=O)O)C(=O)O

System: L1210 leukemia ip in BDF1 mice, survival T/C
Assay: NCI In Vivo Anticancer Drug Screen. Data for tumor model L1210 Leukemia (intraperitoneal) in B6D2F1 (BDF1) mice
Conditions: endpoint: mean survival time, higher = longer survival
How it was run: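 Read-out is survival time, reported as the treated-group measurement over the vehicle-control measurement.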

[1] = dose: 100.0 mg/kg/injection, schedule: Q01DX009 (ip), vehicle: Klucel (hydroxypropylcellulose) (HPC)
[2] = dose: 200.0 mg/kg/injection, schedule: Q01DX009 (ip), vehicle: Klucel (hydroxypropylcellulose) (HPC)
[3] = dose: 400.0 mg/kg/injection, schedule: Q01DX009 (ip), vehicle: Klucel (hydroxypropylcellulose) (HPC)
[4] = dose: 200.0 mg/kg/injection, schedule: Q04DX003 (ip), vehicle: Klucel (hydroxypropylcellulose) (HPC)
[5] = dose: 100.0 mg/kg/injection, schedule: Q04DX003 (ip), vehicle: Klucel (hydroxypropylcellulose) (HPC)
[6] = dose: 50.0 mg/kg/injection, schedule: Q01DX009 (ip), vehicle: Klucel (hydroxypropylcellulose) (HPC)
[7] = dose: 50.0 mg/kg/injection, schedule: Q04DX003 (ip), vehicle: Klucel (hydroxypropylcellulose) (HPC)
[8] = dose: 100.0 mg/kg/injection, schedule: Q01DX001 (ip), vehicle: saline with Tween-80
[9] = dose: 100.0 mg/kg/injection, schedule: Q01DX009 (ip), vehicle: saline with Tween-80
[10] = dose: 100.0 mg/kg/injection, schedule: Q04DX002 (ip), vehicle: saline with Tween-80
[11] = dose: 100.0 mg/kg/injection, schedule: Q04DX003 (ip), vehicle: saline with Tween-80
[12] = dose: 200.0 mg/kg/injection, schedule: Q01DX001 (ip), vehicle: saline with Tween-80
[13] = dose: 200.0 mg/kg/injection, schedule: Q01DX009 (ip), vehicle: saline with Tween-80
[14] = dose: 200.0 mg/kg/injection, schedule: Q04DX002 (ip), vehicle: saline with Tween-80
[15] = dose: 200.0 mg/kg/injection, schedule: Q04DX003 (ip), vehicle: saline with Tween-80
[16] = dose: 400.0 mg/kg/injection, schedule: Q01DX001 (ip), vehicle: saline with Tween-80
[17] = dose: 400.0 mg/kg/injection, schedule: Q01DX009 (ip), vehicle: saline with Tween-80
[18] = dose: 400.0 mg/kg/injection, schedule: Q04DX002 (ip), vehicle: saline with Tween-80
[19] = dose: 400.0 mg/kg/injection, schedule: Q04DX003 (ip), vehicle: saline with Tween-80
[20] = dose: 400.0 mg/kg/injection, schedule: Q04DX003 (ip), vehicle: Klucel (hydroxypropylcellulose) (HPC)
[21] = dose: 100.0 mg/kg/injection, schedule: Q01DX001 (ip), vehicle: saline
[22] = dose: 200.0 mg/kg/injection, schedule: Q01DX001 (ip), vehicle: saline
[23] = dose: 400.0 mg/kg/injection, schedule: Q01DX001 (ip), vehicle: saline
[24] = dose: 50.0 mg/kg/injection, schedule: Q01DX009 (ip), vehicle: saline with Tween-80

Measured: T/C

O=C(Cc1ccc(Cl)cc1)NC(NC(=O)Cc1ccc(Cl)cc1)C(Cl)(Cl)Cl
inactive: [1] 102 % of control | [2] 96 % of control | [3] 88 % of control

Cc1ccc2c(ccc(/C=C/c3ccc(O)c4ncccc34)[n+]2C)c1
inactive: dose: 22.0 mg/kg/injection, schedule: Q01DX009 (ip), vehicle: Klucel (hydroxypropylcellulose) (HPC) 115 % of control | dose: 33.0 mg/kg/injection, schedule: Q01DX009 (ip), vehicle: Klucel (hydroxypropylcellulose) (HPC) 117 % of control | dose: 100.0 mg/kg/injection, schedule: Q01DX001 (ip), vehicle: carboxymethylcellulose (CMC) 108 % of control | dose: 200.0 mg/kg/injection, schedule: Q01DX001 (ip), vehicle: carboxymethylcellulose (CMC) 124 % of control | [4] 98 % of control | dose: 400.0 mg/kg/injection, schedule: Q01DX001 (ip), vehicle: carboxymethylcellulose (CMC) 124 % of control

O=C1C2CCN(CC2)C1CN1CCC(O)(c2ccc(Cl)cc2)CC1 (stereo not drawn)
inactive: [5] 104 % of control | [4] 101 % of control

NC(N)=N/N=C/c1c(O)ccc2ccccc12
inactive: dose: 15.0 mg/kg/injection, schedule: Q01DX Z (ip), vehicle: saline 99 % of control | dose: 15.6 mg/kg/injection, schedule: Q01DX010 (oral), vehicle: saline 117 % of control | dose: 31.0 mg/kg/injection, schedule: Q01DX Z (ip), vehicle: saline 94 % of control | dose: 31.3 mg/kg/injection, schedule: Q01DX010 (oral), vehicle: saline 118 % of control | dose: 63.0 mg/kg/injection, schedule: Q01DX Z (ip), vehicle: saline 86 % of control

O=C(O)CC(NC(=O)CNC(=O)OCc1ccccc1)C(=O)O (stereo not drawn) (Cbz-Gly-[ξD]-OH)
inactive: [6] 93 % of control | [7] 94 % of control | [1] 93 % of control | [5] 98 % of control | [2] 95 % of control | [4] 94 % of control

CC(=O)Oc1ccc(OC(C)=O)c2c1CC1(C)OC1(C)C2 (stereo not drawn)
inactive: dose: 25.0 mg/kg/injection, schedule: Q01DX009 (ip), vehicle: saline 104 % of control | dose: 50.0 mg/kg/injection, schedule: Q01DX009 (ip), vehicle: saline 91 % of control | dose: 100.0 mg/kg/injection, schedule: Q01DX009 (ip), vehicle: saline 89 % of control | dose: 200.0 mg/kg/injection, schedule: Q01DX009 (ip), vehicle: saline 93 % of control | dose: 400.0 mg/kg/injection, schedule: Q01DX009 (ip), vehicle: saline 89 % of control

CCOC(=O)c1nc(SCc2ccccc2)n(Cc2ccccc2)c1C(=O)OCC
inactive: [8] 109 % of control | [9] 104 % of control and 107 % of control | [10] 102 % of control and 108 % of control | [11] 91 % of control | [12] 101 % of control | [13] 102 % of control and 111 % of control | [14] 101 % of control and 87 % of control | [15] 107 % of control | [16] 95 % of control | [17] 101 % of control and 102 % of control | [18] 97 % of control and 104 % of control | [19] 101 % of control

O=C(O)CCC1CCCCC1=O (stereo not drawn)
inactive: [6] 104 % of control | [7] 98 % of control | [1] 95 % of control | [5] 97 % of control | [2] 98 % of control | [4] 98 % of control

Cc1cc(OC(=O)Nc2ccc(Cl)c(Cl)c2)ccc1Cl
inactive: [1] 102 % of control | [5] 96 % of control | [2] 98 % of control | [4] 104 % of control | [3] 95 % of control | [20] 101 % of control

N=C1N=C(N)CS1
inactive: [21] 95 % of control | [22] 104 % of control | [23] 101 % of control

COc1cccc(N=CN(C)C)c1
inactive: dose: 50.0 mg/kg/injection, schedule: Q01DX001 (ip), vehicle: saline 90 % of control | [21] 104 % of control

CCOC(=O)OC1C(OC)OC2COC(c3ccccc3)OC2C1O (stereo not drawn)
inactive: dose: 100.0 mg/kg/injection, schedule: Q04DX002 (ip), vehicle: Klucel (hydroxypropylcellulose) (HPC) 91 % of control | dose: 200.0 mg/kg/injection, schedule: Q04DX002 (ip), vehicle: Klucel (hydroxypropylcellulose) (HPC) 91 % of control | dose: 400.0 mg/kg/injection, schedule: Q04DX002 (ip), vehicle: Klucel (hydroxypropylcellulose) (HPC) 107 % of control

COC1=C(N=[N+]=[N-])C(=O)c2ccccc2C1=O
inactive: dose: 6.25 mg/kg/injection, schedule: Q04DX002 (ip), vehicle: saline with Tween-80 104 % of control | dose: 12.5 mg/kg/injection, schedule: Q04DX002 (ip), vehicle: saline with Tween-80 96 % of control

CCN1C(c2ccccc2)C1c1ccccc1 (stereo not drawn)
inactive: [5] 101 % of control | [4] 102 % of control | [20] 101 % of control

Cc1ccc(NC(=O)Oc2ccc(Cl)cc2C)c([N+](=O)[O-])c1
inactive: [5] 102 % of control | [4] 101 % of control | [20] 91 % of control

O=C(NC(=O)c1ccc(Cl)cc1)Nc1ccc(Cl)cc1C(F)(F)F
inactive: [24] 98 % of control | [9] 103 % of control | [13] 98 % of control

CCOC(=O)C(CC(C)C)NC(=O)CCCCSc1ncnc2nc[nH]c12 (stereo not drawn)
inactive: dose: 25.0 mg/kg/injection, schedule: Q01DX009 (ip), vehicle: saline with Tween-80 110 % of control | dose: 25.0 mg/kg/injection, schedule: Q01DX009 (oral), vehicle: saline with Tween-80 100 % of control | [24] 112 % of control | dose: 50.0 mg/kg/injection, schedule: Q01DX009 (oral), vehicle: saline with Tween-80 92 % of control | [9] 100 % of control | dose: 100.0 mg/kg/injection, schedule: Q01DX009 (oral), vehicle: saline with Tween-80 100 % of control | [13] 98 % of control | dose: 200.0 mg/kg/injection, schedule: Q01DX009 (oral), vehicle: saline with Tween-80 98 % of control | [17] 115 % of control | dose: 400.0 mg/kg/injection, schedule: Q01DX009 (oral), vehicle: saline with Tween-80 107 % of control | dose: 800.0 mg/kg/injection, schedule: Q01DX009 (oral), vehicle: saline with Tween-80 111 % of control

CC1(C)OC2/C(=N/O)C3COC(O3)C2O1 (stereo not drawn)
inactive: [21] 101 % of control | [22] 95 % of control | [23] 106 % of control

O=C1CCS(=O)(=O)CC1
inactive: dose: 50.0 mg/kg/injection, schedule: Q04DX003 (ip), vehicle: saline with Tween-80 92 % of control | [11] 90 % of control | [15] 89 % of control

NC(=O)CNC(=O)OCc1ccccc1
inactive: [1] 102 % of control | [5] 94 % of control | [2] 94 % of control | [4] 105 % of control | [3] 107 % of control | [20] 94 % of control

CCOC(=O)c1ccc(NC(=O)Nc2ccc(OC)cc2Cl)cc1
inactive: [8] 96 % of control | [9] 104 % of control | [10] 94 % of control and 90 % of control | [11] 101 % of control | [12] 91 % of control | [13] 104 % of control | [14] 90 % of control and 91 % of control | [15] 97 % of control | [16] 106 % of control | [17] 92 % of control | [18] 94 % of control and 87 % of control | [19] 92 % of control

CSc1ccc(NC(=O)C(O)C(O)C(O)C(O)CO)cc1 (stereo not drawn)
inactive: [11] 89 % of control | [15] 100 % of control | [19] 95 % of control

Cc1ccccc1C(C)C
inactive: [11] 94 % of control | [15] 98 % of control | [19] 91 % of control

O=[N+]([O-])c1cc([N+](=O)[O-])c(Br)cc1Cl
inactive: dose: 10.0 mg/kg/injection, schedule: Q04DX003 (ip), vehicle: Klucel (hydroxypropylcellulose) (HPC) 93 % of control | dose: 20.0 mg/kg/injection, schedule: Q04DX003 (ip), vehicle: Klucel (hydroxypropylcellulose) (HPC) 96 % of control
